Assay results reported in ChEMBL document CHEMBL1201862, “PubChem BioAssay data set” (2004).
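How tested: cells in 96-well plates exposed to compound for 48 hours at five concentrations. Here, GI50 denotes the concentration required for 50% inhibition of growth.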 The source made the active and inactive calls. No stated cut-off is given here; in the data, active = GI50 up to about 1.1 µM and inactive = higher.

How the values were obtained:
Experiment in all cases: DTP human tumour cell line panel, 48 h
A498 = test system: A498
SN12C = test system: SN12C
MCF7 = test system: MCF7
MOLT-4 = test system: MOLT-4
NCI-H522 = test system: NCI-H522
OVCAR-8 = test system: OVCAR-8
KM12 = test system: KM12
RPMI-8226 = test system: RPMI-8226
OVCAR-4 = test system: OVCAR-4
HL-60 = test system: HL-60
NCI-H23 = test system: NCI-H23
A549 = test system: A549
BT-549 = test system: BT-549
786-0 = test system: 786-0
CCRF-CEM = test system: CCRF-CEM
RXF 393 = test system: RXF 393
MDA-MB-435 = test system: MDA-MB-435
NCI/ADR-RES = test system: NCI/ADR-RES
Hs-578T = test system: Hs-578T
HCT-116 = test system: HCT-116
NCI-H226 = test system: NCI-H226
SK-MEL-2 = test system: SK-MEL-2
MDA-N = test system: MDA-N
TK-10 = test system: TK-10
OVCAR-3 = test system: OVCAR-3
LOX IMVI = test system: LOX IMVI
SF-295 = test system: SF-295
IGROV-1 = test system: IGROV-1
CAKI-1 = test system: CAKI-1
UO-31 = test system: UO-31
ACHN = test system: ACHN
HOP-92 = test system: HOP-92
SNB-19 = test system: SNB-19
SK-MEL-5 = test system: SK-MEL-5
K562 = test system: K562
OVCAR-5 = test system: OVCAR-5
M14 = test system: M14
SK-MEL-28 = test system: SK-MEL-28
HOP-62 = test system: HOP-62
SF-268 = test system: SF-268
DU-145 = test system: DU-145
Malme-3M = test system: Malme-3M
HCT-15 = test system: HCT-15
SR = test system: SR
SF-539 = test system: SF-539
EKVX = test system: EKVX
PC-3 = test system: PC-3
HT-29 = test system: HT-29
MDA-MB-231 = test system: MDA-MB-231
SW-620 = test system: SW-620
UACC-257 = test system: UACC-257
HCC 2998 = test system: HCC 2998
SNB-75 = test system: SNB-75
NCI-H460 = test system: NCI-H460
COLO 205 = test system: COLO 205
U-251 = test system: U-251

C=C(NC(=O)C(=C)NC(=O)c1ccc2c(n1)-c1coc(n1)C(=C)NC(=O)C(=C)NC(=O)c1nc(oc1C)C(=C)NC(=O)C(C(C)(C)O)NC(=O)C(=C)NC(=O)c1coc(n1)/C(=C/C)NC(=O)[C@H]([C@@H](C)O)NC(=O)c1csc-2n1)C(N)=O (stereo partly specified)
GI50 (A498): > 87.5 µM (inactive) | GI50 (SN12C): > 87.5 µM (inactive) | GI50 (MCF7): > 87.5 µM (inactive) | GI50 (MOLT-4): > 87.5 µM (inactive) | GI50 (NCI-H522): > 87.5 µM (inactive) | GI50 (OVCAR-8): > 87.5 µM (inactive) | GI50 (KM12): 66.7 µM (inactive) | GI50 (RPMI-8226): > 87.5 µM (inactive) | GI50 (OVCAR-4): > 87.5 µM (inactive) | GI50 (HL-60): > 87.5 µM (inactive) | GI50 (NCI-H23): > 87.5 µM (inactive) | GI50 (A549): > 87.5 µM (inactive) | GI50 (BT-549): 37.3 µM (inactive) | GI50 (786-0): > 87.5 µM (inactive) | GI50 (CCRF-CEM): > 87.5 µM (inactive) | GI50 (RXF 393): > 87.5 µM (inactive) | GI50 (MDA-MB-435): > 87.5 µM (inactive) | GI50 (NCI/ADR-RES): > 87.5 µM (inactive) | GI50 (Hs-578T): > 87.5 µM (inactive) | GI50 (HCT-116): > 87.5 µM (inactive) | GI50 (NCI-H226): > 87.5 µM (inactive) | GI50 (SK-MEL-2): > 87.5 µM (inactive) | GI50 (MDA-N): > 87.5 µM (inactive) | GI50 (TK-10): > 87.5 µM (inactive) | GI50 (OVCAR-3): > 87.5 µM (inactive) | GI50 (LOX IMVI): 53.8 µM (inactive) | GI50 (SF-295): > 87.5 µM (inactive) | GI50 (IGROV-1): 61.1 µM (inactive) | GI50 (CAKI-1): > 87.5 µM (inactive) | GI50 (UO-31): > 87.5 µM (inactive) | GI50 (ACHN): > 87.5 µM (inactive) | GI50 (HOP-92): > 87.5 µM (inactive) | GI50 (SNB-19): > 87.5 µM (inactive) | GI50 (SK-MEL-5): 41.6 µM (inactive) | GI50 (K562): > 87.5 µM (inactive) | GI50 (OVCAR-5): > 87.5 µM (inactive) | GI50 (M14): 55 µM (inactive) | GI50 (SK-MEL-28): > 87.5 µM (inactive) | GI50 (HOP-62): 81.5 µM (inactive) | GI50 (SF-268): > 87.5 µM (inactive) | GI50 (DU-145): > 87.5 µM (inactive) | GI50 (Malme-3M): > 87.5 µM (inactive) | GI50 (HCT-15): > 87.5 µM | GI50 (SR): > 87.5 µM (inactive) | GI50 (SF-539): > 87.5 µM (inactive) | GI50 (EKVX): > 87.5 µM (inactive) | GI50 (PC-3): > 87.5 µM (inactive) | GI50 (HT-29): > 8.75 µM (inactive) | GI50 (MDA-MB-231): > 87.5 µM (inactive) | GI50 (SW-620): > 87.5 µM (inactive) | GI50 (UACC-257): > 87.5 µM (inactive) | GI50 (HCC 2998): > 87.5 µM (inactive) | GI50 (SNB-75): > 87.5 µM (inactive) | GI50 (NCI-H460): 59.2 µM (inactive) | GI50 (COLO 205): 72.9 µM (inactive) | GI50 (U-251): > 87.5 µM (inactive)
